Test results: paper PMC6269693, “Synthesis and Biological Evaluation of RGD-Conjugated MEK1/2 Kinase Inhibitors for Integrin-Targeted Cancer Therapy” (Molecules, 2013)
pIC50: −log10 of the molar value. Read-outs that look alike come from different tables or passages of the source.

Columns and labels:
inactive MEK1 kinase = inactive MEK1 kinase (Homo sapiens, UniProt Q02750); assay: HTRF phosphor-MEK1 assay (BRAF-MEK1 assay); type: biochemical; settings: for BRAF-MEK1 assay (%) 0.01μM / BRAF-MEK1 assay (%) 0.1 μM / BRAF-MEK1 assay (%) 1 μM: inhibition of phosphorylation of inactive MEK1, mean of three ± SD
Sequence of inactive MEK1 kinase (Q02750 whole entry): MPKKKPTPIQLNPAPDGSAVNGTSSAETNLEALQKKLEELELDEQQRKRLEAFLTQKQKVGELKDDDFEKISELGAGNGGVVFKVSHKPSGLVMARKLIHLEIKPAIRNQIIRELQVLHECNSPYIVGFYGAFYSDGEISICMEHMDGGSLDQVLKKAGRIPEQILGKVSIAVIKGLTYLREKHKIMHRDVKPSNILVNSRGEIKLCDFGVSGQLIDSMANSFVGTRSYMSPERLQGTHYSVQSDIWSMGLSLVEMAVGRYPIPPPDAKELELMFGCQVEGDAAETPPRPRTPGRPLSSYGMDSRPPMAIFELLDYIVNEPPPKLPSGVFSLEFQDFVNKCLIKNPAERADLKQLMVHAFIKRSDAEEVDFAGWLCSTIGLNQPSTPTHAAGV
Description: (§1) Phosphorylated MEK1 was determined quantitatively by formation of a complex with specific Eu-labeled anti-phospho p44/42 MAPK (Thr202/Tyr204) antibody and anti-GST-XL665.After 3 h, time-resolved fluorescence was read using a FlexStation 3 plate reader (Molecular Devices, Sunnyvale, CA, USA). […] The curve-fitting software GraphPad Prism 4.0 was used to generate the curves and determine the IC50 values. […] The calculation method of HTRF ratio was the same with that in HTRF phosphor-MEK1 assay.

active MEK1 kinase = target: T1, active MEK1 kinase (Homo sapiens, UniProt Q02750); assay: HTRF phosphor-ERK2 assay (MEK1-ERK2 assay); type: biochemical; settings: inhibition of active MEK1 phosphorylating inactive ERK2, mean of three ± SD
T1 construct: purchased Carna Biosciences
T1 sequence (Q02750 whole entry): as above
Description: as §1

melanoma A375 cells [1] = assay: cells; settings: Homo sapiens, A-375, 72 h
Description: (§2) A375, U87, A549 cell line, which were obtained from the National Platform of Experimental Cell Resources for Sci-Tech (Beijing, China), were cultured in Dulbecco’s modified Eagle’s medium (DMEM; Hyclone, Logan, UT, USA), supplemented with 10% heat-inactivated FBS (Hyclone), 100 U/mL penicillin, and 100 μg/mL streptomycin (Wako Pure Chemical Industries, Ltd., Osaka, Japan).
(§3) The cytotoxicity of the RGD-MKE1 conjugates on A375 melanoma cells, ERK signal pathway hyper-activated cell line, was studied in vitro by using an SRB assay. A375 cells (4.5 × 10^3) or U87 cells (5.0 × 10^3) were plated in each well of a 96-well tissue culture plate. Medium supplemented with 10% FBS was added, and cells were allowed to adhere for 24h. […] Then the medium was removed from the 96-well plate, and 10% ice-cold trichloroacetic acid (TCA, 200 μL) was added. The plate was kept at 4 for one hour after which was washed five times with deionized water, then stained with Sulforhodamine B (SRB, 100 μL, Sigma, St. Louis, MO, USA) before air drying. After washing with 1% acetic acid, the bound dye was solubilized with Tris base A (Sigma) and 100 μL of each sample were transferred into a 96-well plate, and then absorbance was read in a 96-well plate reader at 540 nm.Inhibitory ratio (%) = [(ODcontrol − ODtreated)/(ODcontrol)] × 100%.

melanoma A375 cells [2] = settings: for pIC50: 72 h
Description: as §2, §3

[3] = tested on: p-ERK1/2 in melanoma A375 cells; assay: Western blotting of p-ERK1/2 in A375 cell lysates; type: cell-based; settings: 10 μM, 2 h
Description: To evaluate the expression levels of ERK singal pathway after treated with conjugates, A375 cells were treated with compounds for 2 h respectively. Confluent cells were washed with ice-cold phosphate-buffered saline (PBS), and treated with lysis buffer (Beyotime Institute of Biotechnology, Suzhou, China) on ice for 1 h. Then the lysates were collected by scraping from the plates and then centrifuged at 13,000 rpm at 4 °C for 15 min. The protein concentration was quantitated using a Pierce BCA Protein Assay Kit (Thermo Scientific, Rockford, IL, USA) ona FlexStation 3 Benchtop Multi-Mode Microplate Reader at 562 nm (Molecular Devices). An equal amount of proteins (10 μg per lane) for each sample were analyzed by SDS-PAGE on a 10% gel. After electro-blotting to PVDF membrane (Millipore, Billerica, MA, USA) at 400 mA for 1 h, membranes were blocked with 5% nonfat dry milk for 1 h at room temperature. Membrane were washed with 0.1% PBST three times and then incubated with primary antibodies overnight at 4 °C. Antibodies against pERK and ERK (Cell Signaling Technology, Inc., Danvers, MA, USA) were utilized as the primary antibodies. […] Finally, protein products were analyzedby Image Lab^TM software(ChemiDoc^TM XRS System, BIO-RAD, Hercules, CA, USA) with. […]

U87 glioblastoma cells = assay: In vitro anti-proliferation assay by the SRB method, U87; type: cell-based, human
Description: as §2, §3

BRAF-MEK1 assay (%) 0.01μM (inactive MEK1 kinase) | BRAF-MEK1 assay (%) 0.1 μM (inactive MEK1 kinase) | BRAF-MEK1 assay (%) 1 μM (inactive MEK1 kinase) | MEK1-ERK2 assay (%) 1 μM (active MEK1 kinase) | MEK1-ERK2 assay (%) 10 μM (active MEK1 kinase) | Molecule | further results
 |  |  |  |  | NCCOCCONC(=O)c1ccc(F)c(F)c1Nc1ccc(I)cc1F [Compound 7e, N-(2-(2-aminoethoxy)ethoxy)-3,4-difluoro-2-((2-fluoro-4-iodophenyl)amino)benzamide] | melting point: 197.5 to 198.5 °C
12.5 ± 3.2% | 39.6 ± 9.3% | 57.5 ± 1.7% | 29.1 ± 12.0% | 83.4 ± 1.2% | O=C(O)CCC(=O)NCCCONC(=O)c1ccc(F)c(F)c1Nc1ccc(I)cc1F [Compound 8b, 4-((3-((3,4-Difluoro-2-((2-fluoro-4-iodophenyl)amino)benzamido)oxy)propyl)amino)-4-oxobutanoic acid] | pIC50 (melanoma A375 cells [1]; read-out: A375 cell IC50): 4.85
 |  |  |  |  | O=C(O)CCC(=O)NCCCCONC(=O)c1ccc(F)c(F)c1Nc1ccc(I)cc1F [Compound 8c, 4-((4-((3,4-Difluoro-2-((2-fluoro-4-iodophenyl)amino)benzamido)oxy)butyl)amino)-4-oxobutanoic acid] | melting point: 120.9 to 121.9 °C
0.3 ± 0.0% | 30.0 ± 4.7% | 74.2 ± 7.2% | 66.5 ± 7.7% | 88.4 ± 1.4% | N=C(N)NCCC[C@@H]1NC(=O)[C@H](CCCCNC(=O)CCC(=O)NCCONC(=O)c2ccc(F)c(F)c2Nc2ccc(I)cc2F)NC(=O)[C@@H](Cc2ccc(O)cc2)NC(=O)[C@H](CC(=O)O)NC(=O)CNC1=O [Compound 9a] | pIC50 (melanoma A375 cells [2]): 5.36
 |  |  |  |  | O=C(O)CCC(=O)OC[C@H](O)CONC(=O)c1ccc(F)c(F)c1Nc1ccc(I)cc1F [Compound 11, (S)-4-(3-((3,4-difluoro-2-((2-fluoro-4-iodophenyl)amino)benzamido)oxy)-2-hydroxypropoxy)-4-oxobutanoic Acid] | pIC50 (melanoma A375 cells [1]; read-out: A375 proliferation assay IC50): 6.64; fold loss of antitumor efficacy compared to 13 (melanoma A375 cells [2]; A375 IC50 vs 13): ~10 fold
 |  |  |  |  | O=C(NOC[C@H](O)CO)c1ccc(F)c(F)c1Nc1ccc(I)cc1F [PD0325901, reference compound] | inhibition at 1 µM (U87 glioblastoma cells; Homo sapiens, U-87 MG, high concentrations (>1 µM), concentration-independent, 72 h, read-out: inhibitory activity in U87 cells): ~50%; pIC50 (melanoma A375 cells [1]; read-out: A375 cell IC50): 9.35
 |  |  |  |  | c(RGDyK) [cRGD peptides, reference compound] | inhibition of the phosphorylation of ERK1/2 protein [3]: no inhibitory activity

Molecule | BRAF-MEK1 assay (%) 0.01μM (inactive MEK1 kinase) | BRAF-MEK1 assay (%) 0.1 μM (inactive MEK1 kinase) | BRAF-MEK1 assay (%) 1 μM (inactive MEK1 kinase) | MEK1-ERK2 assay (%) 1 μM (active MEK1 kinase) | MEK1-ERK2 assay (%) 10 μM (active MEK1 kinase) | further results
N=C(N)NCCC[C@@H]1NC(=O)[C@H](CCCCNC(=O)CCC(=O)NCCCONC(=O)c2ccc(F)c(F)c2Nc2ccc(I)cc2F)NC(=O)[C@@H](Cc2ccc(O)cc2)NC(=O)[C@H](CC(=O)O)NC(=O)CNC1=O [Compound 9b] | 6.7 ± 8.5% | 58.5 ± 8.5% | 77.6 ± 7.5% | 69.9 ± 3.2% | 93.5 ± 2.2% | pIC50 (inactive MEK1 kinase): 7.32; inhibition of the phosphorylation of ERK1/2 protein [3]: up to 90%; U87 cell-growth inhibition (U87 glioblastoma cells; 10 µM, SRB method): 21.3%; pIC50 (melanoma A375 cells [2]): 5.68
